Test results from paper PMC8469417, “Is It Possible to Create Antimicrobial Peptides Based on the Amyloidogenic Sequence of Ribosomal S1 Protein of P. aeruginosa?” (International Journal of Molecular Sciences, 2021).
Entries after “also recorded” stand apart in the source; their conditions may differ. Counter-ions that a name gives are not always drawn. Each block holds one molecule with its values, some of them ahead of it. Ends that are not written are not given here.

What was measured:
[1] = system: P. aeruginosa strain PA103; assay: Inhibition zone assay on agar, strain PA103; type: cell-based, Pseudomonas aeruginosa; settings: 24 h
Method: (§1) The R23R, R23L, R23R*, R23L* peptides and an antibiotic (gentamicin sulfate) were dissolved in 100% DMSO and solutions were prepared to test their activity.
The culture of the studied bacteria (P. aeruginosa strain PA103) was diluted 10 times in Luria-Bertani (LB) medium with non-solidified 0.75% agar (w/w) on sterile Petri dishes. […]

[2] = system: P. aeruginosa strain ATCC 9027; assay: Antimicrobial test on agar, strain ATCC 9027; type: cell-based, Pseudomonas aeruginosa
Method: as §1
(§2) The P. aeruginosa strain ATCC 28753 was inoculated with a wire loop in 5 mL of LB medium and was incubated at 37 °C. After 12 h, plastic Petri dishes were poured with LB medium (about 5 mL) with 0.75% agar. Before pouring, 50 μL of an overnight culture of the test bacteria was added to each dish. The R23R, R23L, R23R*, and R23L* peptides were finally dissolved in 2% (volume/volume) DMSO and was tested with different concentrations with gentamicin sulfate as control of antimicrobial effect. The medium was dried and 10 μL of the prepared peptides were applied to it in accordance with the labeling. Then the dishes were placed in a thermostat and incubated for 12 h at a temperature of 37 °C. Antimicrobial activity was recorded by the presence of transparent zones of no growth around drops with peptide.
Studies with the P. aeruginosa strain ATCC 9027 were carried out similarly to the P. aeruginosa strain ATCC 28753. The exception was the amount of LB medium. Sterile plastic Petri dishes were filled with LB medium (about 25 mL) with 0.75% agar and 250 µL of an overnight culture of the test bacteria was added to each dish.

[3] = electron microscopy and fluorescence of thioflavin T; cited from earlier work
Text: In accordance with the strategy presented in Figure 1, we developed hybrid peptides that contained a cell penetrating peptide (CPP) (fragment of Tat-peptide) at the N-termini and an amyloidogenic sequence at the C-termini, which was predicted using bioinformatics tools. The two sites were linked by four glycines. Thus, the construction of the fusion peptide was as follows: “CPP”+”linker GGGG”+ “predicted amyloidogenic-fragment”. The LHITDMAWKR and ITDFGIFIGL sequences were used as amyloidogenic fragments.

[4] = system: P. aeruginosa strain PA103; assay: Broth microdilution, strain PA103; type: cell-based, Pseudomonas aeruginosa; settings: LB medium, 2% DMSO, 24 h, 37 °C, 600 nm
Method: The R23R, R23L, R23R*, R23L* peptides and an antibiotic (gentamicin sulfate) were dissolved in 100% DMSO and solutions were prepared with a final DMSO concentration of 2% (volume/volume) to test their activity.
Stationary culture of P. aeruginosa strain PA103 was diluted 100 times in fresh LB medium with peptides R23R and R23L or gentamicin sulfate (positive control) at various concentrations. After 24 h at 37 °C co-incubation bacterial cells with peptides, the optical densities of the cultures were measured at a wavelength of 600 nm in a plate reader iMac (BioRad Laboratories, Hercules, CA, USA). Each test was carryout in three replicates.
In the next experiment to prepare a stationary culture of P. aeruginosa, strain PA103, a colony was inoculated from a Petri dish in 1.5 mL of liquid LB medium and set to grow for 24 h at 37 °C and with stirring at 180 rpm. In the experiment, we used a culture with an initial concentration of ≈10^6–10^7 CFU/mL (10 μL), sterile LB medium (80 μL), peptides R23R* and R23L* diluted in 20% (volume/volume) DMSO or the antibiotic gentamicin sulfate as a positive control (10 μL). […] Optical density was measured in a plate reader iMac (BioRad Laboratories, Hercules, CA, USA) at a wavelength of 600 nm every hour from 0 h to 24 h. Each sample is measured in duplicate.

[5] = system: human breast duct carcinoma BT474 cells; assay: Cytotoxicity assay, BT474 cells; type: cell-based; settings: up to 8 µM, 24 h; resazurin assay, calcein-AM / propidium iodide staining, triplicate
Method: (§3) Cell viability was estimated as described previously by resazurin cell viability assay. Each assay was done in triplicate. All measurements were carried out on the control samples that were not treated with cytotoxic substances. We used human diploid fibroblasts and human breast duct carcinoma BT474 cells obtained from the American Type Cell Culture Collection (Manassas, Virginia, VA, USA). BT474 cells were cultured in DMEM medium (Sigma-Aldrich, St. Louis, MO, USA) supplemented with 10% fetal bovine serum (Gibco, Waltham, MA, USA), 40 μg/mL gentamicin sulfate (Sigma-Aldrich, St. Louis, MO, USA), at 37° C, under conditions of 5% content CO2 in the air. The analysis of living and dead cells was carried out using BD Accuri C6 flow cytometer (BD Bioscience, San Jose, CA, USA).

[6] = system: P. aeruginosa strain ATCC 28753; type: cell-based, Pseudomonas aeruginosa; settings: 10 µL drops on LB 0.75% agar, 2% DMSO, 12 h, 37 °C
Method: as §1, §2

[7] = system: human diploid fibroblasts; assay: Cytotoxicity assay, human fibroblasts; type: cell-based; settings: up to 8 µM, 24 h; resazurin assay, calcein-AM / propidium iodide staining, triplicate
Method: as §3

Molecule: RKKRRQRRRGG-Sar [R12-Sar, CPP fragment with GG-Sar, without amyloidogenic part]
antimicrobial activity on agar (in words) ([1]; drops on LB agar, b51 states it for bacteria grown on agar in general): did not exhibit antimicrobial activity
antibacterial properties on agar ([1]; peptide 6.56 µM): Non-AMP
antibacterial properties on agar ([1]; peptide 65.6 µM): Non-AMP
antibacterial properties on agar ([1]; peptide 656 µM): Non-AMP
antibacterial properties on agar ([1]; peptide 6560 µM): Non-AMP
antimicrobial activity on agar (in words) ([2]; drops on LB 0.75% agar, 3.75-3750 µM tested, zones of inhibition): did not exhibit antimicrobial activity
antibacterial properties on agar ([2]; peptide 3.75 µM): Non-AMP
antibacterial properties on agar ([2]; peptide 37.5 µM): Non-AMP
antibacterial properties on agar ([2]; peptide 375 µM): Non-AMP
antibacterial properties on agar ([2]; peptide 3750 µM): Non-AMP

Molecule: ITDFGIFIGL [amyloidogenic fragment from the fifth domain of ribosomal S1 protein of P. aeruginosa]
amyloid-like properties (in words) [3]: exhibited amyloid-like properties

MIC ([1]; Pseudomonas aeruginosa, PA103, drops on LB 0.75% agar, 20% DMSO, zones of inhibition, read-out: minimum inhibitory concentration (MIC)): 170 µM
Molecule: CNC(C)C1CCC(N)C(OC2C(N)CC(N)C(OC3OCC(C)(O)C(NC)C3O)C2O)O1 (centres unmarked) [gentamicin sulfate]
Optical density ([4]; 174 µM): zero
Optical density ([4]; 1740 µM): zero

Molecule: RKKRRQRRRGGGGITDFGIFIGL [R23L]
cytotoxic effect / cell viability (in words) [5]: remained alive; also recorded: did not have a toxic effect
MIC [6]: about 300 µM
cytotoxic effect / cell viability (in words) [7]: remained alive; also recorded: did not have a toxic effect

Molecule: RKKRRQRRRGGGGLHITDMAWKR [R23R]
cytotoxic effect / cell viability (in words) [5]: remained alive; also recorded: did not have a toxic effect
MIC [6]: about 300 µM
cytotoxic effect / cell viability (in words) [7]: remained alive; also recorded: did not have a toxic effect
